Experimental data taken from ChEMBL document CHEMBL5252673, “Development of thiazole-appended novel hydrazones as a new class of α-amylase inhibitors with anticancer assets: an in silico and in vitro approach” (RSC Med Chem, 2023).

How the values were obtained:
Alpha amylase [1] = target: T1, Alpha amylase (Homo sapiens, UniProt P0DUB6); test: Inhibition of alpha-amylase (unknown origin) using starch as substrate preincubated with substrate for 15 mins followed by compound addition and measured after 15 mins by UV-VIS spectrophotometric analysis
T1 sequence (P0DUB6 whole entry): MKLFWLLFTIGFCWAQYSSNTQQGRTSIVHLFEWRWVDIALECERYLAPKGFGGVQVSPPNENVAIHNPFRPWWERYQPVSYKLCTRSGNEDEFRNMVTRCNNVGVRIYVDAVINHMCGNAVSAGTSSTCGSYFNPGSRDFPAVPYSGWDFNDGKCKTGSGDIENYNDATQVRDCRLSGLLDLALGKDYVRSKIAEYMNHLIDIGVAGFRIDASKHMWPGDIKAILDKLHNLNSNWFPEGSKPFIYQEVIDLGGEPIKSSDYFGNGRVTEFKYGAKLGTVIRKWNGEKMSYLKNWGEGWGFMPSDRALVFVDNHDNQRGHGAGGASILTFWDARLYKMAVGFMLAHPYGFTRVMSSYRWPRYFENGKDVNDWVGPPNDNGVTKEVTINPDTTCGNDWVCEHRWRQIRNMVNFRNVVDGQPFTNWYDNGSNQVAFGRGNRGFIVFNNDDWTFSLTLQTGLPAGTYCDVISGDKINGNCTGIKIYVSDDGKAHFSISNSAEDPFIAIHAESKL

MDA-MB-231 = test: Antiproliferative activity against human MDA-MB-231 cells assessed as inhibition of cell growth incubated for 48 hrs by MTT assay; format: functional, cell-based; settings: MDA-MB-231, 48 h
HCT-116 = test: Antiproliferative activity against human HCT-116 cells assessed as inhibition of cell growth incubated for 48 hrs by MTT assay; format: functional, cell-based; settings: HCT-116, 48 h
A549 [2] = test: Antiproliferative activity against human A549 cells assessed as inhibition of cell growth incubated for 48 hrs by MTT assay; format: functional, cell-based; settings: A549, 48 h
MCF-10A = test: Cytotoxicity against human MCF-10A assessed as reduction in cell viability upto 10 uM incubated for 48 hrs by MTT assay; format: toxicity, cell-based
A549 [3] = test: Induction of ROS in human A549 cells at sub IC50 concentration incubated for 24 hrs by H2DCFDA dye based fluorescence assay (reference value: 33.28%); format: functional
Alpha amylase [4] = target: T1, Alpha amylase; test: Inhibition of alpha-amylase (unknown origin)
[5] = system: O=C(N/N=C/c1ccc(O)cc1)c1csc(Nc2ccc([N+](=O)[O-])cc2)n1; test: (§1) Uncompetitive inhibition of alpha-amylase (unknown origin) using starch as substrate assessed as decrease in Km incubated for 30 mins by UV-visible spectrophotometric analysis; settings: Homo sapiens
[6] = system: COc1cc(/C=N/NC(=O)c2csc(Nc3ccc([N+](=O)[O-])cc3)n2)cc(OC)c1OC; test: as §1; settings: Homo sapiens
[7] = system: O=C(N/N=C/c1ccc(Cl)cc1)c1csc(Nc2ccc([N+](=O)[O-])cc2)n1; test: as §1; settings: Homo sapiens
[8] = system: COc1cc(/C=N/NC(=O)c2csc(Nc3ccc([N+](=O)[O-])cc3)n2)ccc1O; test: as §1; settings: Homo sapiens
[9] = system: O=C(N/N=C/c1ccc(O)cc1)c1csc(Nc2ccc([N+](=O)[O-])cc2)n1; test: (§2) Uncompetitive inhibition of alpha-amylase (unknown origin) using starch as substrate assessed as decrease in Vmax incubated for 30 mins by UV-visible spectrophotometric analysis; settings: Homo sapiens
[10] = system: COc1cc(/C=N/NC(=O)c2csc(Nc3ccc([N+](=O)[O-])cc3)n2)cc(OC)c1OC; test: as §2; settings: Homo sapiens
[11] = system: O=C(N/N=C/c1ccc(Cl)cc1)c1csc(Nc2ccc([N+](=O)[O-])cc2)n1; test: as §2; settings: Homo sapiens
[12] = system: COc1cc(/C=N/NC(=O)c2csc(Nc3ccc([N+](=O)[O-])cc3)n2)ccc1O; test: as §2; settings: Homo sapiens
Alpha amylase [13] = target: T1, Alpha amylase; test: Inhibition of alpha-amylase (unknown origin) using starch as substrate incubated for 30 mins by microplate reader analysis

Row | Molecule | IC50 (Alpha amylase [1]) [µM] | IC50 (MDA-MB-231) [µM] | IC50 (HCT-116) [µM] | IC50 (A549 [2]) [µM] | other results
1 | COc1cc(/C=N/NC(=O)c2csc(Nc3ccc([N+](=O)[O-])cc3)n2)cc(OC)c1OC | 0.26 | 2.67 | 1.03 | 1.62 | Activity (MCF-10A): Non-Toxic; Activity (A549 [3]): 22.34%
2 | C#Cc1cccc(Nc2ncnc3cc(OCCOC)c(OCCOC)cc23)c1 [ERLOTINIB] |  | 2.54 | 1.11 | 1.23 | 
3 | CC(=O)c1sc(N/N=C(/C)c2ccc(Cl)cc2)nc1C |  |  |  |  | IC50 (Alpha amylase [4]): 4.79 µM
4 | Alpha amylase (Homo sapiens) (from UniProt P0DUB6) |  |  |  |  | Km [5]: 830 µM; Km [6]: 1190 µM; Km [7]: 804 µM; Km [8]: 1030 µM; Vmax [9]: 0.916 µmol/min; Vmax [10]: 3.24 µmol/min; Vmax [11]: 1.56 µmol/min; Vmax [12]: 1.81 µmol/min
5 | Cc1c(C(=O)N/N=C/c2ccc(O)c(O)c2)oc2ccccc12 |  |  |  |  | IC50 (Alpha amylase [4]): 1.24 µM
6 | NNC(=O)c1csc(N/N=C/c2cccc(Br)c2)n1 |  |  |  |  | IC50 (Alpha amylase [4]): 31 µg/mL
7 | O=C(N/N=C/c1ccc(Cl)cc1)c1csc(Nc2ccc([N+](=O)[O-])cc2)n1 | 0.29 | 6.77 | 2.96 | 2.63 | Activity (MCF-10A): Non-Toxic; Activity (A549 [3]): 28.62%
8 | Fc1cccc(-c2nc3scc(-c4ccc(Br)cc4)n3n2)c1 |  |  |  |  | IC50 (Alpha amylase [13]): 3.2 µM
9 | O=C(N/N=C/c1ccc(F)cc1)c1csc(Nc2ccc([N+](=O)[O-])cc2)n1 | 0.34 | 8.33 | 7.66 | 5.43 | 
10 | C/C(=N\NC(=O)c1csc(Nc2ccc(Cl)cc2)n1)c1ccccn1 | 0.35 | 13.2 | 13.2 | 20.2 | 

More lines, main results first:

Row | IC50 (Alpha amylase [1]) [µM] | IC50 (MDA-MB-231) [µM] | IC50 (HCT-116) [µM] | IC50 (A549 [2]) [µM] | Molecule | other results
11 | 0.4 | 16.1 | 13.2 | 11.3 | COc1ccc(/C=N/NC(=O)c2csc(Nc3ccc(Cl)cc3)n2)cc1 | 
12 | 0.37 | 23.2 | 7.32 | 11.2 | O=C(N/N=C/c1ccccc1)c1csc(Nc2ccc([N+](=O)[O-])cc2)n1 | 
13 | 0.43 | 4.95 | 4.99 | 3.98 | COc1ccc(Nc2nc(C(=O)N/N=C/c3ccc(O)c(OC)c3)cs2)cc1 | 
14 | 0.48 | > 25 | 6.43 | 5.98 | O=C(N/N=C/c1ccccc1)c1csc(Nc2ccccc2)n1 | 
15 | 0.41 | 9.32 | 12.2 | 10.3 | COc1ccc(Nc2nc(C(=O)N/N=C/c3ccc(Cl)cc3)cs2)cc1 | 
16 | 0.45 | 14.9 | 12.2 | 9.86 | O=C(N/N=C/c1ccc(O)c(O)c1)c1csc(Nc2ccccc2)n1 | 
17 | 0.41 | 14.5 | 10.1 | 12 | COc1cc(/C=N/NC(=O)c2csc(Nc3ccccc3)n2)ccc1O | 
18 | 0.38 | 3.89 | 7.62 | 6.49 | O=C(N/N=C/c1ccccc1)c1csc(Nc2ccc(Cl)cc2)n1 | 
19 | 0.39 | 5.56 | 5.99 | 4.98 | COc1ccc(/C=N/NC(=O)c2csc(Nc3ccc(O)cc3)n2)cc1OC | 
20 | 0.43 | 7.77 | 9.48 | 8.42 | O=C(N/N=C/c1cccc(F)c1)c1csc(Nc2ccccc2)n1 | 
